Here are results for 22 molecules from patent publication US6080750A, “Pyrimidine compound and anti-rotavirus composition” (priority 1996, dated 2000).

One series deals with male ICR mice. The series is described as follows: Toxicity test (mouse acute toxicity, minimum lethal dose). It counts as in vivo. Conditions: oral (po), male ICR mice fasted overnight, survival 14 days. An excerpt: A test compound was orally administered to male ICR mice (weight 25-35 g) fasted overnight, and survival thereof was monitored for 14 days.
The nature of series [1]: Determination of cytotoxicity (50% cell growth inhibition effect). In kind it is cell-based, green monkey. Conditions: monkey; CV-1 cells, 2 days, cell count; read-out: ED50 (50% cell growth inhibition effect dose), CV-1 cells. As to the method:
(§1) cultured cell: CV-1 cells which are green monkey kidney cell line were cultured in MEM supplemented with 10% calf serum. The culture cells were prepared to a concentration of 4×10^5 cells/ml, plated on a 24 well microplate and cultured for 2 days before use for the determination.
CV-1 cells were prepared to a concentration of 4×10^4 cells/ml with MEM containing 10% calf serum and plated on a 24 well microplate, which was followed by culture for 2 days. The culture solution thereof was changed to MEM containing 10% calf serum and serially diluted test compounds at various concentrations, and the cells were cultured for 2 days. The cells were prepared into a homogeneous single cell suspension using 0.1% crude trypsin, and counted with a Coulter counter Model D (Coulter Electronics Ltd., England).
The 50% cell growth inhibition effect dose (ED50 =μg/ml) was expressed by the concentration of the test compound, which decreased cell numbers in the control cell culture without the test compound, by 50%.

The test system of the next series is rotavirus SA-11 strain. The series is described as follows: Determination of antiviral activity (50% plaque reduction method). The settings on record: for antiviral index (ED50 /ID50): ED50 CV-1 cells / ID50 rotavirus SA-11; for IC50: 96 h, read-out: ID50 (50% plaque inhibition dose), rotavirus SA-11. It counts as cell-based, rotavirus SA-11 (in CV-1 green monkey kidney cells). As to the method:
Determination of activity of test compound against rotavirus and evaluation thereof
rotavirus: To a liquid containing preserved rotavirus SA-11 strain was added trypsin (Sigma, acetylated trypsin type V-S) to 10 μg/ml and incubated at 37° C. for 30 minutes to activate the […], after which the culture was diluted to a concentration of 50 plaque forming units (PFU)/0.1 ml with Eagle's minimum essential medium (MEM) and used for the determination.
as §1
Activated rotavirus SA-11 […] were inoculated at 50 PFU/0.1 ml to CV-1 cells cultured in a monolayer on a 24 well microplate. The virus was allowed to adsorb to the cells in 1.5 hours at 37° C. and the surface layer of the cells was washed three times with MEM. Then, a multilayer agar medium (mixed medium of MEM, 3 μg/ml acetylated trypsin and agar at final concentration of 0.8%, all added at 45° C.) containing aliquot of test compounds was superposed on the cell layer. The cells were incubated at 37° C. for 4 days, immobilized with formalin, stained with a crystal violet solution and counted for plaque number.
The antiviral activity was expressed by the concentration of the test compound (50% plaque inhibition dose: ID50 =μg/ml), which decreased plaques formed in the control cell culture without the test compound, by 50%.
ED50 value was divided by ID50 value and the obtained value was used as an antiviral index for the determination of selective anti-rotaviral activity on infected cells in comparison to that on normal cells (host cells).

[2] abbreviates: in Chlorocebus sabaeus, rotavirus SA-11 50 PFU, CV-1 cells, 37° C., 4 days, plaque count.
Where [3] appears, read: Rotavirus, CV-1, in Chlorocebus sabaeus.

The structures appear in SMILES notation. ≈ marks a conversion by molar mass, not a printed value. Like-named read-outs stand apart in the source and are kept apart here.

As to `Nc1c(Cl)ncnc1NCC1(CO)CCC1` [compound 18], the “mouse acute toxicity [lethal dose] (minimum lethal dose)” value (“mouse acute toxicity [lethal dose]” below) in the series with male ICR mice is recorded as over 500 mg/kg.

Consider `CCC(CC)(CO)CNc1cc(Cl)nc(N)n1` [compound 23], for which the CC50 at 48 h in series [1] was 80 µg/mL (≈ 309 µM). For the same molecule, the “antiviral index (ED50 /ID50)” value in the series on rotavirus SA-11 strain was found to be 23. Besides, the IC50 with rotavirus SA-11 strain (setting [2]) amounted to 3.5 µg/mL (≈ 13.5 µM).

For the molecule `CC(C)(CO)CNc1nc(N)nc(Cl)c1N` [compound 24], the CC50 at 48 h in series [1] was 56.2 µg/mL (≈ 229 µM). Also, the “antiviral index (ED50 /ID50)” value in the series with rotavirus SA-11 strain was found to be 51.1. Also, the IC50 with rotavirus SA-11 strain (setting [2]) worked out at 1.1 µg/mL (≈ 4.48 µM).

Regarding `CCC(CC)(CO)CNc1nc(N)nc(Cl)c1N` [compound 25], the CC50 at 48 h in series [1] stood at 30 µg/mL (≈ 110 µM). Also, the “antiviral index (ED50 /ID50)” value with rotavirus SA-11 strain turned out to be 150.0. The IC50 in the series with rotavirus SA-11 strain (setting [2]) was determined as 0.2 µg/mL (≈ 0.731 µM).

Consider `Nc1nc(Cl)cc(NCC2(O)CCC2)n1` [compound 28], for which the CC50 at 48 h in series [1] is over 30 µg/mL. Further, the “antiviral index (ED50 /ID50)” value in the series on rotavirus SA-11 strain was over 10. In addition, the IC50 in the series with rotavirus SA-11 strain (setting [3]) was 3 µg/mL (≈ 13.1 µM).

Take `Nc1nc(Cl)cc(NCC2(CO)CC(OCc3ccccc3)C2)n1` (centres unmarked) [compound 39]: the “mouse acute toxicity [lethal dose]” value in the series on male ICR mice was over 500 mg/kg.

For the molecule `Nc1nc(Cl)cc(NCC2(CO)CC(Cc3ccccc3)C2)n1` (centres unmarked) [compound 43], the “mouse acute toxicity [lethal dose]” value with male ICR mice was over 500 mg/kg.

Take `Nc1nc(Cl)cc(NCC2(CO)CC(CCc3ccccc3)C2)n1` (centres unmarked) [compound 44]: in the series with male ICR mice, the “mouse acute toxicity [lethal dose]” value is over 500 mg/kg.

As for `Nc1nc(Cl)cc(NCC2(CO)CC(c3ccccc3)C2)n1` (centres unmarked) [compound 47], the “mouse acute toxicity [lethal dose]” value in the series with male ICR mice is given as over 500 mg/kg.

`Nc1nc(Cl)cc(NCC2(CO)CCCC2)n1` [compound 48]: the “mouse acute toxicity [lethal dose]” value with male ICR mice was over 500 mg/kg.

With `Nc1nc(Cl)c(N)c(NCC2(CO)CC2)n1` [compound 58], the CC50 at 48 h in series [1] was over 100 µg/mL. For the same molecule, the “mouse acute toxicity [lethal dose]” value in the series on male ICR mice is over 1000 mg/kg. The “antiviral index (ED50 /ID50)” value in the series with rotavirus SA-11 strain is on record as over 67. The IC50 in the series with rotavirus SA-11 strain (setting [3]) is 1.5 µg/mL (≈ 6.16 µM).

As for `Nc1nc(Cl)c(N)c(NCC2(CO)CCC2)n1` [compound 59], the CC50 at 48 h in series [1] is 3.6 µg/mL (≈ 14 µM). The “mouse acute toxicity [lethal dose]” value in the series on male ICR mice is listed as over 500 mg/kg. For the same molecule, the “antiviral index (ED50 /ID50)” value in the series on rotavirus SA-11 strain is on record as 2. Moreover, the IC50 in the series with rotavirus SA-11 strain (setting [2]) turned out to be 1.9 µg/mL (≈ 7.37 µM).

For the molecule `COc1cc(NCC2(CO)CCC2)nc(N)n1` [compound 86], in the series on rotavirus SA-11 strain (setting [2]), the IC50 was found to be 2.2 µg/mL (≈ 9.23 µM).

As to `Nc1nc(O)c(N)c(NCC2(CO)CC2)n1` [compound 104], the “mouse acute toxicity [lethal dose]” value in the series with male ICR mice was over 1000 mg/kg. The IC50 in the series with rotavirus SA-11 strain (setting [2]) was 0.6 µg/mL (≈ 2.66 µM).

On to `Nc1nccc(NCC2(CO)CC(OCc3ccccc3)C2)n1` (centres unmarked) [compound No. 3], for which the IC50 with rotavirus SA-11 strain (setting [2]) worked out at 12.6 µg/mL (≈ 40.1 µM).

On to `Nc1nccc(NCC2(CO)CC(CCc3ccccc3)C2)n1` (centres unmarked) [compound No. 5], for which the “mouse acute toxicity [lethal dose]” value with male ICR mice is over 500 mg/kg.

Regarding `Nc1ncc(Br)c(NCC2(CO)CCC2)n1` [compound No. 6, 2-Amino-5-bromo-4-[[(1-hydroxymethyl-1-cyclobutyl)methyl]amino]pyrimidine], the “mouse acute toxicity [lethal dose]” value with male ICR mice is listed as over 500 mg/kg. Further, in the series with rotavirus SA-11 strain (setting [2]), the IC50 came out at 2.9 µg/mL (≈ 10.1 µM).

Regarding `Nc1ncc(Br)c(NCC2(CO)CC(CCc3ccccc3)C2)n1` (centres unmarked) [compound No. 7], in the series on male ICR mice, the “mouse acute toxicity [lethal dose]” value is on record as over 500 mg/kg.

On to `CC(C)(CO)CNc1cc(Cl)nc(N)n1` [compound No. 20, 2-Amino-6-chloro-4-[(3-hydroxy-2,2-dimethylpropyl)amino]pyrimidine], for which, in series [1], the CC50 at 48 h is over 1 µg/mL. In addition, in the series with rotavirus SA-11 strain, the “antiviral index (ED50 /ID50)” value is listed as over 9.5. In the series with rotavirus SA-11 strain (setting [2]), the IC50 came to 10.5 µg/mL (≈ 45.5 µM).

Turning to `Nc1nc(Cl)cc(NCC2(CO)CCC2)n1` [compound No. 35, 2-Amino-6-chloro-4-[[(1-hydroxymethyl-1-cyclobutyl)methyl]amino]-pyrimidine], the “mouse acute toxicity [lethal dose]” value in the series on male ICR mice is reported as over 500 mg/kg. In the series with rotavirus SA-11 strain (setting [2]), the IC50 was found to be 7.8 µg/mL (≈ 32.1 µM).

Turning to `Cl.Cl.Nc1nc(Cl)c(N)c(NCCO)n1` [compound No. 112, 6-Chloro-2,5-diamino-4-[(2-hydroxyethyl)amino]pyrimidine dihydrochloride], the “mouse acute toxicity [lethal dose]” value in the series with male ICR mice is recorded as over 1000 mg/kg.

Take `Nc1nc(Cl)c(N)c(NCCCO)n1` [compound No. 113, 6-Chloro-2,5-diamino-4-[(3-hydroxypropyl)amino]pyrimidine]: the CC50 at 48 h in series [1] was over 100 µg/mL. The “mouse acute toxicity [lethal dose]” value with male ICR mice was over 1000 mg/kg. For the same molecule, the “antiviral index (ED50 /ID50)” value in the series with rotavirus SA-11 strain is recorded as over 38. In the series on rotavirus SA-11 strain (setting [2]), the IC50 was 2.6 µg/mL (≈ 11.9 µM).
